Source: patent US6020374A, “Biologically active synthetic dye compounds” (priority 1998, dated 2000)
Converted amounts (≈) assume the structure as drawn.

How the values were obtained:
MCF-7 cells = assay: Cell death estimation, cycloheximide-exposed MCF-7 cells (trypan blue); format: cell-based; settings: for Effect on percent of dead cells: cells exposed to CX for 48 hours, compared with Control not exposed to CX
Description: Subconfluent cultures of MCF-7 cells in 35 mm dishes, were deprived of serum for 20 hours and then exposed to 30 μg/ml cycloheximide in the presence or absence of increasing concentrations of fractionated ATA, crude ATA or EB. After 48 hours, the cells were detached with trypsin. The medium and the detached cells were pooled and centrifuged at 1000×g for 10 mins. Cell viability was estimated by adding an equivalent volume of trypan blue solution to an aliquot of suspended cells. Stained and unstained cells were counted on a hemocytometer (10^3 cells were counted for each determination).
Subconfluent, 20 hours starved MCF-7 cells were exposed to 30 μg/ml
of cycloheximide in the presence of increasing
concentrations of fractionated ATA (0, 6, 12, 25, 50 μg/ml). After
48 hours, percent of dead cells was
determined as described under "Experimental procedures". In the
presence of cycloheximide only, 60-70% of
the cells were dead after 48 hours.
Cultures of […] cells were exposed to 30 μg CX for 48 hours in the presence of EB, ATA, IGF-1, or nothing.

IRS-1 = IRS-1 tyrosine phosphorylation and association with p85/Grb2 in MCF-7 cells; format: cell-based; settings: 5 mins., ATA or EB 300 μg/ml, IGF-1 20 ng/ml
Description: FIG. 3 is the effect of ATA and EB on tyrosine phosphorylation or IRS-1: MCF-7 cells grown in 100 mm dishes, were treated with ATA or EB, each at 300 μg/ml, or 20 ng/ml IGF-1 for 5 mins. Total cell extracts, solubilized in Buffer A, were subjected to immunoprecipitation with antibodies to IRS-1 (a) or Grb2 (b). The immunocomplexes, precipitated with protein G-Sepharose beads, were subjected to 7.5% SDS-PAGE followed by immunoblotting with a phosphotyrosine antibody, an antibody to the 85-kDa subunit of PI3-kinase or antibody to IRS-1.
(§1) Cells were solubilized in Buffer A or C. Extracts were immunoprecipitated at 4° C. with antibodies to IRS-1, IRS-2, IGF-1 or IR receptor or Grb2, adsorbed on protein A-Sepharose beads. The immunocomplexes were pelleted by centrifugation at 12,000×g and washed twice with Buffer A, and twice with Buffer A containing 0.1% Triton x-100. The pellets were then suspended in Laemmli sample buffer and resolved on 7.5% SDS-PAGE.
(§2) Nitrocellulose blots of proteins were incubated with the antibodies, and proteins were detected by enhanced chemiluminescence using horseradish peroxidase-labeled protein A, horseradish peroxidase-labeled anti rabbit IgG or horseradish peroxidase-labeled anti-mouse IgG.
(§3) MCF-7 cells were stimulated with ATA, EB or IGF-1, solubilized and immunoprecipitated with anti IRS-1 or IRS-2 antibodies, separated by SDS-PAGE and immunoblotted with anti-phosphotyrosine antibody. […] The association of IRS-1 with Grb-2 was evaluated in lysates from treated cells which were immunoblotted with antibodies to either phosphotyrosine or IRS-1.

IRS-2 = IRS-2 association with p85 of PI3-kinase in MCF-7 cells; format: cell-based; settings: 5 mins., ATA or EB 300 μg/ml, IGF-1 20 ng/ml
Description: FIG. 4 is the effect of ATA and EB on tyrosine phosphorylation of IRS-2: MCF-7 cells were treated as in FIG. 3. Total cell extracts, solubilized in Buffer C, were immunoprecipitated with an antibody to IRS-2. The immunocomplexes, precipitated with protein A-Sepharose beads were subjected to 7.5% SDS-PAGE, followed by immunoblotting with a phosphotyrosine antibody and an antibody to the 85-kDA subunit of PI3-kinase.
as §1, §2, §3

PI3-kinase = assay: Anti-IRS-1 precipitable PI3-kinase activity in MCF-7 cells; format: cell-based; settings: 5 mins., ATA or EB 300 μg/ml
Description: FIG. 5 is the effect of ATA and EB on the anti-IRS-1 precipitable PI3-kinase activity: Cells were treated as in FIG. 3a. Anti-IRS-1 immunoprecipitates were washed and the pellets incubated with phosphatidyl inositol and γ^32 P-ATP.
Phosphorylation of phosphatidyl inositol was measured as follows. Cells were solubilized in Buffer C and the extracts immunoprecipitated at 4° C. with IRS-1 antibody and adsorbed onto protein A-Sepharose beads. The immunoprecipitates were washed three times with Buffer C and then washed once with Buffer B, Buffer E and Buffer F. The lipid kinase reaction was initated by addition of 100 μl sonicated phosphatidylinositol (10 μg) in kinase buffer (20 mM Hepes, pH 7.5, 10 mM MnCl2 and 10 mM MgCl2) containing 10 μCi [γ^32 P]ATP (3000 ci/m mol; Amersham). The reaction was performed at room temperature for 10 mins. and terminated by the addition of 100 μl 1 N HCl. Lipids were extracted by addition of 200 μl of a 1:1 mixture of chloroform/methanol, followed by vortexing and centrifugation at 14,000×g for 10 mins. The chloroform-containing lipid phase was then re-extracted with 150 μl of a 1:1 mixture of 1N HCl/methanol, followed by vortexing and centrifugation at 14,000×g for 10 mins. The 30 μl of the chloroform phase were resolved by thin layer chromatography using a chloroform/methanol/ammonium hydroxide (90:70:20 v/v)) running buffer. […]

IR = target: T1, IR (Rattus norvegicus, UniProt P15127); assay: Tyrosine phosphorylation of IR in FaO cells; format: cell-based; settings: EB; for Tyrosine phosphorylation of IR: 5 mins., ATA at 200 μg/ml
T1 construct: determined in the rat hepatoma cell line FaO; endogenous in cells; host or cells: FaO (rat hepatoma)
T1 sequence (P15127 764-1383 limits assumed): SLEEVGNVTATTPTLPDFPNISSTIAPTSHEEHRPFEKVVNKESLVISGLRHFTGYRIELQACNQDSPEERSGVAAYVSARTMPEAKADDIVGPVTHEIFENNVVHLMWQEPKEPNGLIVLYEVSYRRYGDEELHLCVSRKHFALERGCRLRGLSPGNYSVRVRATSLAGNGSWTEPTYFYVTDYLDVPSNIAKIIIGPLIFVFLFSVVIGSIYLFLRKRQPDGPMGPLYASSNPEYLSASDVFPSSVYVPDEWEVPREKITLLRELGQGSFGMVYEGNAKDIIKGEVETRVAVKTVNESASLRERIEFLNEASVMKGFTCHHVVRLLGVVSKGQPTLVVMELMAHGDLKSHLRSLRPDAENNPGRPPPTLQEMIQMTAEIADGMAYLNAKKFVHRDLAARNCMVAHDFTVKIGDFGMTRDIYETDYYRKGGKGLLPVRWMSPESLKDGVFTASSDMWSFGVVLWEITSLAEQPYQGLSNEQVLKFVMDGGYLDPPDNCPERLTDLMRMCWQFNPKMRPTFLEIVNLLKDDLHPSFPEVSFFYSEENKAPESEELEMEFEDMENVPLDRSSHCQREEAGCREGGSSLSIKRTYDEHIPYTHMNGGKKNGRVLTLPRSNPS
T1 sequence (P15127 27-759 limits assumed): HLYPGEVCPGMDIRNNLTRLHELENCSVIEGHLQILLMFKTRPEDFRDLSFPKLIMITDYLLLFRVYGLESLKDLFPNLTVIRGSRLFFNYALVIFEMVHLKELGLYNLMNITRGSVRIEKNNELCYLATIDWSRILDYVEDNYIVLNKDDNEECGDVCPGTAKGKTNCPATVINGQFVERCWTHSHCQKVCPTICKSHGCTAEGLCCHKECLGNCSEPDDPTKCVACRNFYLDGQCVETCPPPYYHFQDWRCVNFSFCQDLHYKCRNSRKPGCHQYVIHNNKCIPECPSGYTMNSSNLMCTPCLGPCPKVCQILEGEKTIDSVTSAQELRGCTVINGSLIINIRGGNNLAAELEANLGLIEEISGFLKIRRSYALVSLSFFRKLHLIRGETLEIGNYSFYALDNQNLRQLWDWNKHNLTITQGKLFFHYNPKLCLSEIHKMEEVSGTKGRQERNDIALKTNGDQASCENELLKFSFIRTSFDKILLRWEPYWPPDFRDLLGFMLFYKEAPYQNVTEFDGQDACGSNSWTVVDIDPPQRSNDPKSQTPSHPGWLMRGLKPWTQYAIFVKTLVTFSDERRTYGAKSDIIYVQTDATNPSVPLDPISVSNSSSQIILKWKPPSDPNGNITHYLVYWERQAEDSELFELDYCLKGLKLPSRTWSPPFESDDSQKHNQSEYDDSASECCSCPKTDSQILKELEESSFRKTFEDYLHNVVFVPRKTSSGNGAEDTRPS
Description: FIG. 9 is the tyrosine phosphorylation of the IR cascade in Fao cells: A--Immunoblot analysis: Fao cells were deprived of serum for 20 hours, then incubated with EB, ATA, at 200 μg/ml or insulin at 600 ng/ml for 5 mins. Cell extracts were subjected to immunoprecipitation with antibodies to: IR β-subunit (αIR), IRS-1 (αIRS-1) and to IRS-2 (αIRS-2). The immunoprecipitates and total cell extracts were analyzed by SDS-PAGE. Proteins were transferred to nitrocellulose papers, and phosphotyrosine containing proteins were probed with anti-phosphotyrosine antibodies (αP-Tyr), antibody to the 85-kDa subunit of PI3-kinase (αp85) and antibodies to active MAPK (α active MAPK). The immunoblots were visualized by ECL (Amersham).
B--Kinetics of IR phosphorylation: Cells were treated either with 200 μg/ml EB for the indicated times (top panel) or with the indicated concentrations of EB for 5 mins. (middle panel). A 3 hour preincubation with vanadate preceded the 5 min. incubations with EB and insulin (bottom panel).
MCF-7 cells were grown in 35 or 100 mm dishes in DMEM with 5% bovine fetal serum. Rat hepato FaO cells were grown in RPMI 1640 medium supplemented with 10% fetal calf serum. Subconfluent monolayers of MCF-7 cells or FaO cells, were deprived of serum for 20 hours prior to each experiment. The medium was removed, and cells were incubated at 37° C. under the conditions as indicated for each experiment. The reaction was terminated by removing the medium and freezing the monolayers with liquid nitrogen. In some experiments, cells were preincubated with 50 μM sodium orthovanadate for 3 hours.
as §1, §2
The ability of EB and ATA to phosphorylate the IR was determined in the rat hepatoma cell line FaO. […] Phosphorylation is maximal after a 1 min. exposure to 70 μg/ml of EB (FIG. 9B, top and middle panels).

3T3 L1 adipocytes [1] = assay: 2-deoxyglucose uptake in 3T3 L1 adipocytes; format: cell-based; settings: 20 mins., EB, ATA 200 μg/ml, insulin 600 ng/ml
Description: (§4) FIG. 11 is the metabolic effects in 3T3 L1 adipocytes: Fully differentiated 3T3 L1 adipocytes were incubated with EB, ATA or fuchsin (FUCH) each at 200 μg/ml, or with 600 ng/ml of insulin for 20 mins. (A, B, C) or 5 mins. (D). CON indicates no additive.
A--2-deoxyglucose uptake. Hexose uptake was measured for 10 mins. using 50 μM 2-deoxy-(^3 H) glucose (1 μCi/ml). Non-specific uptake was determined in the presence of cytochalasin B (50 μM).

3T3 L1 adipocytes [2] = assay: Glycogen synthesis in 3T3 L1 adipocytes; format: cell-based; settings: 20 mins., EB, ATA 200 μg/ml, insulin 600 ng/ml
Description: as §4
B--Glycogen synthesis. Cells were incubated with (^14 C)-glucose for 10 mins. Radioactivity was determined in the precipitated glycogen fraction.

cells = settings: apoptosis induced by growth factor deprivation or by drugs such as cycloheximide (CX); cited from earlier work

Structure (SMILES) | Effect on percent of dead cells (MCF-7 cells) | Association of IRS-1 with Grb-2 (IRS-1) | Association of p85 subunit of PI3-k with IRS-1 (IRS-1) | Phosphorylation of IRS-1 (IRS-1) | Association of p85 subunit of PI3-k with IRS-2 (IRS-2) | PI3-kinase activity (anti-IRS-1 precipitable) (PI3-kinase) | Tyrosine phosphorylation of IR (IR) | Concentration of maximal IR phosphorylation (IR) | Exposure time of maximal IR phosphorylation (IR) | Glucose uptake (3T3 L1 adipocytes [1]) | Glycogen synthesis (3T3 L1 adipocytes [2]) | Percent dead cells (MCF-7 cells; 30 μg CX, 48 hours, ATA 100 μg/ml) | IC50 (MCF-7 cells; Homo sapiens, MCF7, starved MCF-7 cells, 30 μg/ml cycloheximide, 48 hours, read-out: IC50, concentration which inhibits 50% of cell death induced by cycloheximide) | Protection of cells from apoptosis (cells)
Cc1cc(-c2ccc(N=Nc3ccc4c(S(=O)(=O)O)cc(S(=O)(=O)O)c(N)c4c3O)c(C)c2)ccc1N=Nc1ccc2c(S(=O)(=O)O)cc(S(=O)(=O)O)c(N)c2c1O [EB, Evan's Blue] | reduced the percent of dead cells to that observed in cells not exposed to CX | IRS-1 co-precipitated with Grb2 | p85 precipitates with IRS-1 | stimulated the phosphorylation of IRS-1 | p85 precipitates | increases PI3-kinase activity similar to IGF-1 | phosphorylates IR on tyrosine residues, similar to insulin | 70 µg/mL | 1 min | increase glucose uptake | increase |  |  | 
O=C(O)C1=CC(=C(c2ccc(O)c(C(=O)O)c2)c2ccc(O)c(C(=O)O)c2)C=CC1=O [ATA, Aurintricarboxylic acid] | reduced the percent of dead cells to that observed in cells not exposed to CX | IRS-1 co-precipitated with Grb2 | p85 precipitates with IRS-1 | stimulated the phosphorylation of IRS-1 | p85 precipitates | increases PI3-kinase activity similar to IGF-1 | phosphorylates IR on tyrosine residues, similar to insulin |  |  | increase glucose uptake | increase | 8 ± 3% | 18 µg/mL (≈ 42.6 µM) | protect cells from apoptosis
